The subject of series [1] is Human (mixed gender) hepatocytes pooled from 10 donors. Put plainly: In vitro intrinsic clearance in human hepatocytes. Type of series: in vitro ADME. Conditions: human hepatocytes 0.545 million cells/mL, 5 μM, up to 60 minutes at 37° C.; weighted by ratio of D0, D1 and D2. Here is the method: To use human hepatocytes to assess the in vitro intrinsic clearance of deuterated DMT analogue blends relative to DMT.
Human (mixed gender) hepatocytes pooled from 10 donors (0.545 million cells/mL) were used to investigate the in vitro intrinsic clearance of DMT and 6 deuterated analogues.
A concentration of 5 μM was used for all test compounds, as well as sumatriptan, serotonin, benzylamine controls. This concentration was chosen in order to maximise the signal-to-noise ratio, while remaining under the Michaelis constant (Km) for the monoamine oxidase enzyme (MAO). Diltiazem and diclofenac controls were used at a laboratory-validated concentration of 1 μM.
Test compounds were mixed with the hepatocyte suspension within a 96-well plate and incubated for up to 60 minutes at 37° C. […] At 7 time points, small aliquots were withdrawn, and the test compound/blend concentration therein was measured by LC-MS/MS. The time points measured were 2, 4, 8, 15, 30, 45 and 60 minutes. […]
The resulting concentration-time profile was then used to calculate intrinsic clearance (CLint) and half-life (t½). […] Intrinsic clearance is calculated from the slope/elimination rate constant and the formula is CLint=(−1000*slope)/cell denisty in 1E6 cells/ml, to give units of microlitre/min/million cells.
Intrinsic clearance and half-life values were calculated for DMT and the 6 deuterated mixtures described above.

The conditions of series [2]: short-acting psychedelic; cited from earlier work.

We go through two molecules from patent publication US12076311B2, “Therapeutic compositions comprising deuterated or partially deuterated N,N-dimethyltryptamine compounds” (CYBIN UK LTD, priority 2019, dated 2024).

Consider `CN(C)CCc1c[nH]c2ccccc12` [DMT, N,N-dimethyltryptamine], for which the Intrinsic clearance in series [1] came out at 13.77 μL/min/million cells.

With `CN(C)CCc1c[nH]c2ccccc12` [N,N-dimethyltryptamine (DMT)], the duration of action entry in series [2] is recorded as “under 20 minutes”.
